Test results taken from patent publication US20140127157A1, “ANTIVIRAL ACTIVITY OF TYROSINE KINASE INHIBITORS AGAINST HEPATITUS C VIRUS” (priority 2012, published 2014).
Where two headings read alike, the source gives them in different places.

Experiments:
in vitro = conditions: human
Source text: (§1) The infectious cell culture system for HCV (HCVcc) is based on a unique full length strain of genotype 2a derived from a patient with fulminant hepatitis (JFH-1). HCVcc allows the complete virus life cycle to be studied in cell culture. A chimeric strain of JFH-1, termed Jc1JFH, is capable of more robust growth in tissue culture and can be engineered to encode a reporter gene. The activity of compounds such as nilotinib against HCVcc can be investigated using a Jc1JFH reporter virus encoding luciferase (Table 1). Naïve Huh-7.5 cells are treated with serially diluted compounds in DMSO for 2 h prior to infection with HCVcc. […] Both EC50 and CC50 values are normalized to cells treated with DMSO alone.

HCVcc [1] = assay: microbe, parasite or virus in culture; conditions: for EC50: Hepatitis C virus
Source text: as §1

HCVrep = assay: HCV replicon (HCVrep) luciferase assay, JFH-1-based replicon cell line; set-up: species or system Hepatitis C virus (HCV)
Source text: (§2) HCVrep comprises a stable cell line harboring a sub-genomic replicon encoding a selectable marker (e.g., neomycin phosphotransferase), a reporter gene (e.g., luciferase) and the minimal HCV replicase proteins, NS3 to NS5B. Since the subgenomic replicon is non-infectious, the HCVrep system is used to study viral RNA replication independently of other stages of the life cycle, including virus entry/assembly/release. […] To determine the effects of compounds such as nilotinib on HCV RNA replication, a stable JFH-1-based replicon cell line encoding luciferase was established.

HCVcc [2] = assay: Time of addition experiment with HCVcc (FIG. 1); type: cell-based, Hepatitis C virus (HCV); conditions: treatment 1 (compound during first 4 h of infection) vs treatment 2 (added 4 h post-infection); luciferase at 72 h
Experimental: FIG. 1. The effect of agents added before or after entry of HCV into cells. The presence of compound during both binding and post-binding are indicated by black bars; white bars indicate compounds present only at post-binding. DMSO, dimethyl sulfoxide; 5Ainh, HCV NS5A inhibitor (50×EC50); nilotinib (50×EC50); α-CD81, anti-CD81 antibody (1 μg/mL); α-IgG, iso-type control antibody (1 μg/mL).
To further explore the MOA of compounds such as nilotinib, a time of addition experiment is performed to determine whether the compound acted at an early (i.e., entry) or late (i.e., assembly/release) stage of the virus life cycle. Naive Huh7.5 cells are infected for 4 h with HCVcc in either the presence (treatment 1) or absence (treatment 2) of compound. At 4 h post-infection, compound is then added to the treatment 2 cells. At 72 h post infection, luciferase activity is determined. An inhibitor of viral entry (antibody targeting CD81) and an HCV replication inhibitor (5Ainh) are used as comparators.

[3] = Cytotoxicity in HCVrep cell line
Source text: as §1, §2

HCV entry = type: cell-based, Hepatitis C virus (HCV); conditions: binding 1.5 h at 4° C., shift to 37° C., compound added at 20 min intervals up to 2 h; luciferase after 48 h
Experimental: The effect of agents added during entry of HCV into cells-. HCV kinetic entry assay in the presence of compounds.
In this assay, infection is synchronized by incubation of cells and virus together for 1.5 h at 4° C. to allow binding, but not subsequent entry steps. After synchronization, unbound virus is removed by washing, and cells are shifted to 37° C. to initiate post-binding events. Compounds are added either immediately prior to (time zero), or at 20 min intervals post-temperature shift for up to 2 h. Compounds are removed at 4 h post-addition and luciferase activity is measured after 48 h of infection. Controls are included, which are known to block various steps of the HCV entry process: heparin sulfate (virus binding), anti-CD81 antibody (early post-virus binding), concanamycin A (ConA; late post-virus binding), bafilomycin (Baf; late post-virus binding), gefitinib (Gef; late post-virus binding). Percent inhibition is determined relative to treatment with compounds during synchronized virus binding at 4° C. Representative data of percent inhibition versus time of addition (FIG. 2) is used to estimate half-maximal times (t1/2) to inhibit HCV entry.

[4] = Table 2, ratio of cytotoxicity to antiviral potency

| Molecule | CC50 (in vitro) [µM] | EC50 (HCVcc [1]; Huh7.5) [µM] | also measured |
| --- | --- | --- | --- |
| Cc1nc(Nc2ncc(C(=O)Nc3c(C)cccc3Cl)s2)cc(N2CCN(CCO)CC2)n1 [Dasatinib, dasatinib] | 18.7 | 1.48 | CC50/EC50 (HCVcc [1]): 12.65 |
| Cc1ccc(NC(=O)c2ccc(CN3CCN(C)CC3)cc2)cc1Nc1nc(-c2cccnc2)cs1 [Masitinib, masitinib] | 6.27 | 0.77 | CC50/EC50 (HCVcc [1]; [4]): 14.58 |
| Cc1ccc(C(=O)Nc2ccc(CN3CCN(C)CC3)c(C(F)(F)F)c2)cc1C#Cc1cnc2cccnn12 [Ponatinib, ponatinib] |  | 0.05 |  |
| Cc1ccc(NC(=O)c2ccc(CN3CCN(C)CC3)cc2)cc1Nc1nccc(-c2cccnc2)n1 [Imatinib, imatinib] |  |  | activity against the replicon (HCVrep; at the concentrations tested): did not show activity at the concentrations tested |
| Cc1cn(-c2cc(NC(=O)c3ccc(C)c(Nc4nccc(-c5cccnc5)n4)c3)cc(C(F)(F)F)c2)cn1 [Nilotinib, nilotinib] | 8.77 | 0.04 | CC50 (in vitro; HCVcc (CC50, μM), uninfected compound-treated cells, CellTiter Glo): 8.8 µM; potency when added during versus after HCV entry (HCVcc [2]): significantly more potent when added during the first 4 h of infection; CC50 at 72 h [3]: 8.2 µM; CC50/EC50 (HCVcc [1]): 219.25; EC50 (HCVcc [1]; Huh7.5, read-out: HCVcc (EC50, μM)): 0.04 µM; EC50 (HCVrep; Hepatitis C virus, JFH-1-based replicon cell line, 72 h treatment): 4.2 µM |
| Cc1cn(-c2cc(NC(=O)c3ccc(C)c(Nc4nccc(-c5cnccn5)n4)c3)cc(C(F)(F)F)c2)cn1 [Rodotinib, radotinib] | > 2.5 | 0.04 |  |
| CNC(=O)c1cc(Oc2ccc(NC(=O)Nc3ccc(Cl)c(C(F)(F)F)c3)cc2)ccn1 [Sorafenib, sorafenib] | 5.75 | 0.47 | CC50/EC50 (HCVcc [1]; [4]): 12.23 |
| heparin sulfate |  |  | inhibition kinetics of HCV entry versus time of addition (t1/2) (HCV entry): effectively blocks infection only when present during virus binding |
| CCN(CC)CCNC(=O)c1c(C)[nH]c(/C=C2\C(=O)Nc3ccc(F)cc32)c1C [Sunitinib, sunitinib] | 3.54 | 0.94 | CC50/EC50 (HCVcc [1]; [4]): 3.77 |
| CNC(=O)c1cc(Oc2ccc(NC(=O)Nc3ccc(Cl)c(C(F)(F)F)c3)c(F)c2)ccn1 [Regorafenib, regorafenib] | > 2.5 | 0.33 |  |
| COc1cc2ncnc(Nc3ccc(F)c(Cl)c3)c2cc1OCCCN1CCOCC1 [Gefitinib, gefitinib] | 10.6 |  |  |
| C#Cc1cccc(Nc2ncnc3cc(OCCOC)c(OCCOC)cc23)c1 [Erlotinib, erlotinib] | > 25 | 0.47 |  |
